Test results from patent US20130065964A1, “PERITONEAL DIALYSIS SOLUTION” (UNIVERSIDAD DE CASTILLA LA MANCHA, priority 2010, published 2013).

How the values were obtained:
p53 = test: Real-time RT-PCR in PMCs from dialysed rats; assay type: in vivo, rat; details: peritoneal cells from rats dialysed four weeks, aliskiren 0.1 or 1 mg/Kg, FIG. 14
Protocol: The rats were exposed daily for four weeks to carrier (saline serum), 1.5% PDF, 2.3% PDF or 4.5% PDF supplemented by, 0.1 mg/Kg aliskiren or 1 mg/Kg aliskiren. The data is expressed as mean±SEM, n=6 rats per group. * p<0.05, compared to the group treated with carrier in the absence of aliskiren (carrier). # p<0.05, compared to their respective groups treated with PDFs in the absence of aliskiren. […]
At the end of the experimental period (four weeks), 30 ml of a commercial PDF with 2.3% glucose (Fresenius Medical Car, Bad Homburg, Germany) was administered intraperitoneally using a 22G needle. […] Their body weight was measured at the start and end of the experimental period. […]
The blood and dialysate samples were centrifuged and stored at −20° C. The concentrations of creatinine and glucose in the serum and dialysate were measured using enzymatic methods. The peritoneal transport of solutes was calculated, on one hand, as the glucose concentration in the dialysate 2 hours after the PET relative to the initial glucose concentration in the PDF (D2/D0 glucose) and, on the other, as the dialysate/plasma creatinine concentration ratio (D2/P2 creatinine) 2 h after the PET. […]
The RNA expression was evaluated by real-time RT-PCR in PMCs. […] RNA quality and concentration was evaluated by spectrophotometry (Infinite 200, Tecan, Salzburg, Austria) using 1 μl of the RNA sample. […]

p38 MAPK = test: Phosphorylation of p38 MAPK by Western blot; assay type: cell-based; details: rat PMCs, D-glucose 50 mM, FIG. 8
Source text: Densitometric analysis of the phosphor-p38 levels normalized with respect to the controls (C). The data is expressed as mean±SEM, n=3. * p<0.05 compared to untreated cells (control). # p<0.05, compared to cells treated with D-glucose in the presence of carrier (0).
Rat peritoneal mesothelial cells were isolated by enzymatic digestion in accordance with protocols described in Hjelle J T, Golinska B T, Waters D C, et al. Perit Dial Int 1989; 9: 341-7. Briefly, female rats weighing 200-400 g of the Spragle-Dawley strain were sacrificed pursuant to Royal Decree 1201/2005, of 10 Oct., on protection of animals used for experimental and other scientific purposes. The abdominal cavity was quickly opened and the abdominal wall (peritoneum and smooth muscle) extracted under sterile conditions. […]
In order to obtain the total protein of the cell cultures, the culture medium was collected and replaced with PBS. […] The protein content of the cell lysates was determined using the Bradford method, following the standard protocol (Vorobiov M, Malki M, Shnaider A, et al. Perit Dial Int 2008; 28: 648-54). A quantity of 20 μg of protein/well of each sample was loaded onto 10% polyacrylamide gels. […] Band intensity was quantified by grey levels using an appropriate image analysis system (Quantity One).

## COCCCOc1cc(C[C@@H](C[C@H](N)[C@@H](O)C[C@H](C(=O)NCC(C)(C)C(N)=O)C(C)C)C(C)C)ccc1OC [aliskiren]
p53
  RNAm expression of pro-apoptotic protein p53: reduced
p38 MAPK
  phosphorylation of protein p38: prevented
